This is an account of results in article PMC9318802, “Optimization of 2-Aminoquinazolin-4-(3H)-one Derivatives as Potent Inhibitors of SARS-CoV-2: Improved Synthesis and Pharmacokinetic Properties” (Pharmaceuticals, 2022).

Each structure is given as a SMILES string. pIC50: −log10 of the molar value. “Also recorded” adds a separate entry of the source. Read-outs that look alike come from different tables or passages of the source.

The conditions of series [1]: rats, oral, 10 mg/kg; ref previously reported; cited from earlier work.
The next series deals with Vero cells. As to conditions: Vero cell assay, previously reported; cited from earlier work.
Series [2] can be described thus: in vitro. As to conditions: African green monkey.
Another series relates to SARS-CoV-2. The series is described as follows: Anti-SARS-CoV-2 immunofluorescence assay in Vero cells. The series is classed as cell-based. As to conditions: for pIC50: Severe acute respiratory syndrome coronavirus 2, immunofluorescence, at least two independent experiments.
Series [3] concerns NIH 3T3, mouse embryonic fibroblast cells. The series is described as follows: EZ-Cytox cell viability assay, NIH 3T3. The following applies: read-out: Cytotoxicity (CC50) NIH 3T3; EZ-Cytox, 24 h.
Series [4] can be described thus: EZ-Cytox cell viability assay, NIH 3T3. The following applies: mouse, Cytotoxicity (CC50) NIH 3T3, EZ-Cytox.
The subject of series [5] is SARS-CoV-2 spike pseudo-typed lentivirus. Kind of series: microbe, parasite or virus in culture. As to conditions: Severe acute respiratory syndrome coronavirus 2, NCI-H1299, 48 h; read-out: IC50 (SARS-CoV-2 spike pseudo-typed virus entry). The class given is cell-based.
Series [6] is described as follows: In vivo oral pharmacokinetics in Sprague Dawley rats. The following applies: rat, blood, male Sprague Dawley rats, 10 mg/kg; for Cmax / Tmax / half-life: n = 3; for AUC(0-t): n = 3, read-out: AUC24h. The procedure: Compounds 2a–c were selected for in vivo pharmacokinetic studies based on their ClogP and selectivity index (SI) values. Each compound was administered orally at 10 mg/kg to three Sprague Dawley rats (Figure 2). […] The lipophilic properties and the small size of the fluorine moieties likely enhance the absorption of compound 2b.
Figure 2 Pharmacokinetic evaluation of compounds 1a, 2a, 2b, and 2c. Each compound was orally administrated to male Sprague Dawley rats (n = 3) at 10 mg/kg. TEXT PRINTED IN THE PICTURE: 1a: Tmax (h): 2.50; Cmax (μg/mL): 0.87; T1/2 (h): 5.65; AUC24h (μg·h/mL): 6.62 | 2a: Tmax (h): 4.67; Cmax (μg/mL): 1.85; T1/2 (h): 4.95; AUC24h (μg·h/mL): 24.31 | 2b: Tmax (h): 4.00; Cmax (μg/mL): 5.56; T1/2 (h): 1.96; AUC24h (μg·h/mL): 41.57 | 2c: Tmax (h): 3.33; Cmax (μg/mL): 1.96; T1/2 (h): 6.69; AUC24h (μg·h/mL): 10.77

The next series has as its target hERG K+ channel (Homo sapiens, UniProt Q12809). The series is described as follows: cell-based.
Series [7] can be described thus: in vitro. The following applies: Chinese hamster, Cytotoxicity (CC50) CHO-K1, EZ-Cytox, 24 h.
A short description of series [8]: EZ-Cytox cell viability assay, HFL-1. As to conditions: human, Cytotoxicity (CC50) HFL-1, EZ-Cytox.
A short description of series [9]: EZ-Cytox cell viability assay, L929. The following applies: mouse, Cytotoxicity (CC50) L929, EZ-Cytox.
Series [10] can be described thus: In vivo single-dose toxicity in male Sprague Dawley rats. Also on record: species or system rat. As to conditions: for Clinical signs: animals with liquid feces: n = 4, recovered by day 4; for Body weight change: recovered on day 14. The protocol: After single administration using 55% PEG200 in distilled water as a vehicle, each group of four rats was monitored for 15 days. […] Therefore, the approximate lethal dose of compound 2b in this study was estimated to be more than 500 mg/kg.
Figure 3 Body weight changes in male rats (n = 4) treated with compound 2b in a single-dose toxicity study. ** p < 0.01, compared to the control at the same time point (Dunnett’s test).

A short description of series [11]: Microsomal stability assay, rat liver microsomes. As to conditions: percentage of original compound remaining after 30 min incubation, NADPH. In general terms: Liver microsomes are vesicles of endoplasmic reticulum, rich in cytochrome P450 enzymes.
Series [12] in a line: Microsomal stability assay, human liver microsomes. The following applies: percentage of original compound remaining after 30 min incubation, NADPH.
Series [13] in a line: Cytotoxicity (CC50) in uninfected Vero cells. As to conditions: African green monkey.
On the set-up of series [14]: method as in PMID 34914868, PMID 34914869. As to conditions: cited from earlier work.
The mark [15] stands for this setting: CC50/IC50 for inhibiting SARS-CoV-2 infection, Vero cells.

hERG K+ channel, sequence (Q12809 whole entry): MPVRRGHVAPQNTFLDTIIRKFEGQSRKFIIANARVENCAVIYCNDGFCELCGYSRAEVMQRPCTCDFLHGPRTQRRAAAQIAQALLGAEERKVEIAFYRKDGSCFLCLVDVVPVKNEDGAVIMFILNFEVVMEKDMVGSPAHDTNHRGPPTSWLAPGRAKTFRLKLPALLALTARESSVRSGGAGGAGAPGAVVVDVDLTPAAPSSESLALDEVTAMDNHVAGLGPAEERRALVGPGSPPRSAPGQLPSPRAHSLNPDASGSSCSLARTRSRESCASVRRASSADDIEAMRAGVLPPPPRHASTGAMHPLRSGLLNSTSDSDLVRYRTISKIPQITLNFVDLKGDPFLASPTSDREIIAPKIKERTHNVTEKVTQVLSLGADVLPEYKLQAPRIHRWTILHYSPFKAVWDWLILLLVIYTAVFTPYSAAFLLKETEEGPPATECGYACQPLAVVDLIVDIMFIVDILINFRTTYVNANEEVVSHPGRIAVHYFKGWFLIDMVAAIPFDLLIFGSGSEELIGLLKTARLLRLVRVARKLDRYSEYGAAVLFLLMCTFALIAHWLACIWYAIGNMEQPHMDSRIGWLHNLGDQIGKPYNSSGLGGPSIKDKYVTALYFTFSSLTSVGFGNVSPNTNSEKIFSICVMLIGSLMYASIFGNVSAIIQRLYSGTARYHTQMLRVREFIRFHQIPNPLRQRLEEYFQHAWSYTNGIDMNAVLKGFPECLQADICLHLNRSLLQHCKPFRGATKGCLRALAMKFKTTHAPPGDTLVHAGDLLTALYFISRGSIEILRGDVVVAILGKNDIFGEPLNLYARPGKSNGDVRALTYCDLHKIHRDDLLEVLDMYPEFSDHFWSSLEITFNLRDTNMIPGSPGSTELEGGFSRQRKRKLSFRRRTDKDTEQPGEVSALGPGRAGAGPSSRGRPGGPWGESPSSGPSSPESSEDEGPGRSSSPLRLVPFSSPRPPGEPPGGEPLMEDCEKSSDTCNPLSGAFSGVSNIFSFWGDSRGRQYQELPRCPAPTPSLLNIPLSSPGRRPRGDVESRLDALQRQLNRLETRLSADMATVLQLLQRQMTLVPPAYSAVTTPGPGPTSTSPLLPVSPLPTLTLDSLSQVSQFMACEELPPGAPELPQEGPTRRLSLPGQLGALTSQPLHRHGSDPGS

The term melting point denotes the temperature of the solid-liquid transition. For `O=C(C(O)OCc1ccccc1)N(c1cc(Cl)cc(Cl)c1)c1nc2cc(Cl)ccc2c(=O)[nH]1` (stereo not shown), the melting point fell in the range of 282 to 284 °C.

One may read the Cmax as the peak of the concentration-time curve. As a reminder, the pIC50 is −log10 of the IC50, conventionally taken in molar units. Consider `O=c1[nH]c(Nc2cc(Cl)cc(Cl)c2)nc2cc(Cl)ccc12` [Compound 1a, 7-Chloro-2-((3,5-dichlorophenyl)amino)quinazolin-4(3H)-one], for which, in series [1], the AUC24h was 6.62 µg·h/mL and the Cmax was 0.87 µg/mL. For the same molecule, the Cytotoxicity entry in the series with Vero cells was “no cytotoxicity”. Further, in “in vitro [2]”, the CC50 at 24 h is greater than 25 µM. Besides, in the series on SARS-CoV-2 (Vero cells), the pIC50 was 6.64.

`O=c1[nH]c(Nc2cc(F)cc(F)c2)nc2cc(Cl)ccc12` [Compound 1b, 7-Chloro-2-((3,5-difluorophenyl)amino)quinazolin-4(3H)-one] yielded a CC50 at 24 h in “in vitro [2]” of 18 µM. The “SI (selectivity index)” value in the series on SARS-CoV-2 (setting [15]) is on record as 74. The pIC50 in the series with SARS-CoV-2 (Vero cells) is 6.62.

By Tmax is commonly meant the time at which the peak concentration occurs. The term half-life denotes the time in which the quantity being followed falls by half. `CC(=O)N(c1cc(Cl)cc(Cl)c1)c1nc2cc(Cl)ccc2c(=O)[nH]1` [Compound 2a, N-(7-Dichloro-4-oxo-3,4-dihydroquinazolin-2-yl)-N-(3,5-dichlorophenyl)acetamide] yielded a melting point of 236 to 238 °C. Also, the CC50 in series [3] was 7.6 µM. This molecule registered a CC50 at 24 h in series [4] of less than 10 µM. Further, the pIC50 in [5] was 6.27. In addition, in [6], the highest level (Cmax) was 1850 ng/mL, the Tmax was found to be 4.67 h, the half-life was 297 min and the AUC(0-t) stood at 24300 ng·h/mL. For the same molecule, the negative logarithm of the IC50 (pIC50) against hERG K+ channel was 4.82. This molecule also showed a CC50 at 24 h in the series “in vitro [2]” of 9.39 µM. Also, the “SI (selectivity index)” value with SARS-CoV-2 is reported as 26. In the series on SARS-CoV-2 (Vero cells), this molecule showed a pIC50 of 6.48.

Regarding `CC(=O)N(c1cc(F)cc(F)c1)c1nc2cc(Cl)ccc2c(=O)[nH]1` [Compound 2b, N-(7-Chloro-4-oxo-3,4-dihydroquinazolin-2-yl)-N-(3,5-difluorophenyl)acetamide], the CC50 in “in vitro [7]” is 14.6 µM. Besides, the CC50 at 24 h in series [4] was 22.7 µM; in series [8] it was 12.6 µM; in series [9], 17.9 µM; in “in vitro [2]”, greater than 25 µM. Moreover, the pIC50 is 6.00 in series [5], 4.52 against hERG K+ channel and 6.54 in the series with SARS-CoV-2 (Vero cells). The molecule further came in with a Cmax in series [6] of 5560 ng/mL. Further, the Tmax in series [6] worked out at 4 h. The molecule also gave a half-life in series [6] of 118 min. In [6], the AUC(0-t) was determined as 41600 ng·h/mL. The “Clinical signs: animals with liquid feces” value in series [10] (250 mg/kg group) is “one animal”; in series [10] (500 mg/kg group) it was “two animals”. For the same molecule, the Body weight change entry was “statistically significant reduction” in [10] (250 mg/kg, day 4, Dunnett's test); “statistically significant reduction” in series [10] (500 mg/kg, days 4 and 8, Dunnett's test). Moreover, the “Gross observations of the organs” value in series [10] (250 and 500 mg/kg) is on record as “did not reveal changes in any of the organs examined”. The Mortality result in series [10] (single oral dose 250 and 500 mg/kg, monitored 15 days) is listed as “no deaths; also recorded: no mortality; also recorded: no animals died”. Moreover, the Approximate lethal dose result in series [10] (single oral dose, male rats) was “greater than 500 mg/kg”.

In “in vitro [7]”, `CC(=O)N(c1cc(Cl)cc(Cl)c1)c1nc2cccc(O)c2c(=O)[nH]1` [Compound 2c, N-(3,5-Dichlorophenyl)-N-(5-hydroxy-4-oxo-3,4-dihydroquinazolin-2-yl)acetamide] registered a CC50 of 17.1 µM. Further, the “Microsomal Stability (%) Rat” value in series [11] is on record as 57%. In addition, in [12], the “Microsomal Stability (%) Human” value was 10%. Moreover, the CC50 at 24 h was 59.9 µM in [4], 13.7 µM in [8], 42.7 µM in [9] and greater than 25 µM in “in vitro [2]”. In series [6], this molecule came in with a Cmax of 1960 ng/mL. Moreover, the Tmax in series [6] amounted to 3.33 h. Besides, the half-life in [6] was 401 min. The AUC(0-t) in series [6] came out at 10800 ng·h/mL. The pIC50 against hERG K+ channel is less than 4.30; in the series on SARS-CoV-2 (Vero cells), 6.96.

For `O=c1[nH]c(Nc2cc(Cl)cc(Cl)c2)nc2cccc(O)c12` [Compound 5c, 2-((3,5-Dichlorophenyl)amino)-5-hydroxyquinazolin-4(3H)-one], the melting point is greater than 300 °C. This molecule displayed a CC50 at 24 h in “in vitro [2]” greater than 25 µM. In addition, the “SI (selectivity index)” value with SARS-CoV-2 (setting [15]) is reported as greater than 168. In the series on SARS-CoV-2 (Vero cells), this molecule showed a pIC50 of 6.82.

`CCC(=O)N(c1cc(Cl)cc(Cl)c1)c1nc2cc(Cl)ccc2c(=O)[nH]1` [Compound 6a, N-(7-Chloro-4-oxo-3,4-dihydroquinazolin-2-yl)-N-(3,5-dichlorophenyl)propionamide] yielded a melting point of 223 to 225 °C. Moreover, the CC50 at 24 h in “in vitro [2]” was greater than 25 µM. The “SI (selectivity index)” value in the series with SARS-CoV-2 (setting [15]) is reported as greater than 117. Also, the pIC50 in the series on SARS-CoV-2 (Vero cells) is 6.68.

`COC(=O)N(c1cc(Cl)cc(Cl)c1)c1nc2cc(Cl)ccc2c(=O)[nH]1` [Compound 6b, Methyl (7-Chloro-4-oxo-3,4-dihydroquinazolin-2-yl)(3,5-dichlorophenyl)carbamate] came in with a melting point of 218 to 220 °C. In series [13] (uninfected Vero cells), this molecule registered a CC50 at 24 h greater than 25 µM. For the same molecule, the pIC50 with SARS-CoV-2 (Vero cells) was 5.15.

The molecule `CN(c1cc(Cl)cc(Cl)c1)c1nc2cc(Cl)ccc2c(=O)[nH]1` [Compound 6c, 7-Chloro-2-((3,5-dichlorophenyl)(methyl)amino)quinazolin-4(3H)-one] showed a melting point of 287 to 289 °C. Besides, the CC50 at 24 h in “in vitro [2]” is greater than 25 µM. This molecule also gave a pIC50 in the series on SARS-CoV-2 (Vero cells) of 5.25.

Regarding `Cc1ccc(S(=O)(=O)N(c2cc(Cl)cc(Cl)c2)c2nc3cc(Cl)ccc3c(=O)[nH]2)cc1` [Compound 6d, N-(7-Chloro-4-oxo-3,4-dihydroquinazolin-2-yl)-N-(3,5-dichlorophenyl)-4-methylben-zenesulfonamide], the melting point was 163 to 165 °C. The CC50 at 24 h in the series “in vitro [2]” was greater than 25 µM. Further, in the series with SARS-CoV-2 (setting [15]), the “SI (selectivity index)” value is recorded as greater than 44. In the series with SARS-CoV-2 (Vero cells), this molecule gave a pIC50 of 6.24.

Take `O=C(CO)N(c1cc(Cl)cc(Cl)c1)c1nc2cc(Cl)ccc2c(=O)[nH]1` [Compound 8, N-(7-Chloro-4-oxo-3,4-dihydroquinazolin-2-yl)-N-(3,5-dichlorophenyl)-2-hydroxy-acetamide]: the melting point was in the range of 263 to 265 °C. This molecule also displayed a CC50 at 24 h in the series “in vitro [2]” greater than 25 µM. Moreover, the “SI (selectivity index)” value in the series on SARS-CoV-2 (setting [15]) was greater than 10. The molecule further showed a pIC50 with SARS-CoV-2 (Vero cells) of 5.59.

Regarding `CCC(CC)COC(=O)[C@H](C)N[P@](=O)(OC[C@H]1O[C@@](C#N)(c2ccc3c(N)ncnn23)[C@H](O)[C@@H]1O)Oc1ccccc1` [Remdesivir, reference compound], in series [13], the CC50 at 24 h was greater than 50 µM. The “SI (selectivity index)” value in the series with SARS-CoV-2 is greater than 14. Further, the negative logarithm of the IC50 (pIC50) with SARS-CoV-2 (Vero cells) is 5.46.

Consider `O=C1CC2(CCCC2)CC(=O)N1CCCCN1CCN(c2ncccn2)CC1` [buspirone, reference compound], for which the “Microsomal Stability (%) Rat” value in series [11] is reported as less than 5%. In addition, the “Microsomal Stability (%) Human” value in [12] is reported as less than 10%.

In the case of `CC(C)C(=O)OC[C@H]1O[C@@H](n2ccc(NO)nc2=O)[C@H](O)[C@@H]1O` [molnupiravir], in series [14] (48 out of 709 patients), the “Incidence of hospitalization or death at day 29” value was 6.8%. For the same molecule, the “Reduction in COVID-19-related hospitalization or death” value in series [14] (versus placebo) was 30%.
